We go through one substance from patent US20230114627A1, “COMPOSITION COMPRISING A METAL ASCORBO-CAMPHORATE COMPOUND AND METHOD FOR PREVENTION AND/OR TREATMENT OF PAPILLOMAVIRUS INFECTIONS” (MGB PHARMA Inc., priority 2020, published 2023).

What all share (assay type): cell-based
One data set concerns Cos-7 cells. The data set is described as follows: Colorimetric cell viability assay on Cos-7 cells. The settings on record: 24 hours, estimated; read-out: 50% cytotoxic concentration (CC50). How it is done: (§1) The cytotoxicity study was conducted on three types of cells: on Vero cells, on human diploid MRC5 cells (human fibroblast and embryonic type), and on Cos-7 cells. […] The latter forms crystals with the highly metabolic living cells.
In a third series of tests, the cytotoxicity of said ascorbo-camphorate on Cos-7 cells was verified. High concentrations of said ascorbo-camphorate may be required to produce an effective formulation. Therefore, the intrinsic toxicity of concentrations of said ascorbo-camphorate up to 5,000 μg/mL was evaluated using a colorimetric cell viability assay. Cos-7 cells were exposed to serial dilutions of the stock solution of said ascorbo-camphorate for 24 hours.
The viability index, or the fraction of viable cells after microbicide treatment relative to the fraction of viable cells exposed to the control condition, was calculated. Cells treated with 0.1% PBS-azide solution were used as a positive control for toxicity. The viability index, or the fraction of viable cells after treatment with the compound “AC” relative to the fraction of viable cells exposed to the natural state, was calculated. […] The 50% cytotoxic concentration (CC50) of said ascorbic camphorate was calculated using a dose-response-inhibition analysis on GraptiPad Prism v5.04 software (from GraphPad Software).

The subject of the next data set is Vero cells. The data set is described as follows: MTT cytotoxicity assay on Vero cells. The method, then:
as §1
(§2) The absorbance at 490 nm of the dissolved crystals corresponds to the number of living cells.
In a first series of tests, the Cytotoxicity of said ascorbo-camphorate on Vero cells was verified with these solutions at dilution rates ranging from one tenth to one billionth.

Another data set deals with human diploid MRC5 cells. The data set is described as follows: MTT cytotoxicity assay on MRC5 cells. How it is done: as §1, §2
In a second series of tests, the cytotoxicity of said ascorbo-camphorate on MRC5 cells was tested with the solutions at dilution ratios ranging from 0 to 100 millionths.

The next data set relates to HEC-1A. The data set is described as follows: Transepithelial electrical resistance (TEER) of HEC-1A monostratified epithelium. The settings on record: up to 500 μM, 24 hours.
The subject of data set [1] is HEC-1A (line of endocervical origin). The data set is described as follows: XTT cell viability (KIT Tox-2) on HEC-1A. Particulars: 24 hours, 1 μM to 500 μM tested. How it is done:
In this example, the cell viability as a measure of non-toxicity was assessed using KIT Tox-2 XTT Sigma Aldrich, where cell viability was measured in terms of the ability of cells to degrade a colorless compound into a colored compound (mitochondrial enzymes) using color intensity as being proportional to the cell viability. Three cell lines as models were used including HEC-1A (line of endocervical origin), SiHa (vaginal cells), and CaCo-2 (intestinal cells). […] KIT Tox-2 XTT Sigma Aldrich.

A further data set concerns CaCo-2. The data set is described as follows: Transepithelial electrical resistance (TEER) of CaCo-2 monostratified epithelium. The settings on record: CaCo-2, up to 500 μM, 24 hours.

A value given as a limit tells only on which side of the number the result lay.

For the substance zinc tetra-ascorbo-camphorate [C14], the CC50 in the data set on Cos-7 cells was more than 5.15 mM. Also, the “percentage of living cells remaining” value in the data set on Vero cells (50-fold dilution of 0.05155 M stock) and in the data set on human diploid MRC5 cells (one-tenth dilution of 0.05155 M stock) was “greater than or equal to 50%” in each case. Further, the “molarity of solutions tolerable by Vero cells (upper limit, value excluded)” value with Vero cells (lower limit tested 5.15.10^−5 μM) was less than 1031 µM. In the data set on human diploid MRC5 cells (lower limit tested 5.15.10-4 μM), the “molarity of solutions tolerable by MRC5 cells (upper limit, exclusive value)” value was less than 5155 µM. Further, the “effect on TEER” value with HEC-1A and with CaCo-2 was “does not affect the TEER” throughout. For the same substance, the “concentrations without toxicity to epithelial cells” value in data set [1] is on record as “less than or equal to 125 μM”.
